Structures can show the parent of a compound that is named as a salt.
Assay: collision cross section in nitrogen (drift tube, single-field); higher = larger gas-phase ion size
[1] = ion type: [M+H], ion source: APCI, ion mode: Positive
[2] = ion type: [M+Na], ion source: ESI, ion mode: Positive
[3] = ion type: [M+H], ion source: ESI, ion mode: Positive
[4] = ion type: [M-H], ion source: ESI, ion mode: Negative
[5] = ion type: [M+], ion source: APCI, ion mode: Positive
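Further: chemical standards at 10 µM analysed by drift tube IMS-QTOF MS in about 3.95 torr nitrogen, mean of duplicate injections differing ≤1%, mass error below 10 ppm.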

| collision cross section in nitrogen [1] [Å²] | collision cross section in nitrogen [2] [Å²] | collision cross section in nitrogen [3] [Å²] | collision cross section in nitrogen [4] [Å²] | Structure (SMILES) | collision cross section in nitrogen [5] [Å²] |
| --- | --- | --- | --- | --- | --- |
| 176.9 |  |  |  | N=C(N)c1ccc(OCCCCCOc2ccc(C(=N)N)cc2)cc1 [Pentamidine] |  |
|  | 215.5 |  |  | C=C(C)C(=O)OCC(O)COc1ccc(C(C)(C)c2ccc(OCC(O)COC(=O)C(=C)C)cc2)cc1 (stereo not given) [Bisphenol A glycidyl methacrylate] |  |
|  | 172.2 |  |  | CC=Cc1ccc(OCc2ccccc2)c(OC)c1 [1-Benzyloxy-2-methoxy-4-(1-propenyl)benzene] |  |
|  |  |  | 154.6 | CCCCCCCCCC(=O)OCC [Ethyl decanoate] |  |
|  |  |  | 146.8 | CCCCCCCOC(C)=O [Heptyl acetate] |  |
| 153.5 | 167.5 | 153.9 | 154.3 | Nc1ccc(S(=O)(=O)Nc2nccs2)cc1 [Sulfathiazole] |  |
| 133.7 | 144 |  | 133.3 | Cc1ncc(CO)c(CO)c1O [Pyridoxine hydrochloride] |  |
|  |  |  | 193.9 | Cc1c(C)c2c(c(C)c1O)CCC(C)(COc1ccc(CC3SC(=O)NC3=O)cc1)O2 (stereo not given) [Troglitazone] |  |
|  |  | 276.7 | 283.1 | O=C(Nc1ccc2c(O)c(N=Nc3ccc(N=Nc4ccc(S(=O)(=O)O)cc4)cc3)c(S(=O)(=O)O)cc2c1)c1ccccc1 [C.I. Direct Red 81 disodium salt] |  |
| 149.3 | 162 |  |  | CCCCN(CCC(=O)OCC)C(C)=O [Ethyl 3-(N-butylacetamido)propionate] |  |
| 211.8 | 203.4 | 211.5 |  | CC(C)(C)c1csc(-c2cc3cc(OCc4ccccc4CC(=O)O)ccc3o2)n1 |  |
|  | 167.6 | 162.7 | 165.1 | Cc1ccc(NC(=O)N(C)C)cc1NC(=O)N(C)C [3,3'-(4-Methylbenzene-1,3-diyl)bis(1,1-dimethylurea)] |  |
| 174.2 | 190.6 | 174.2 | 176.8 | O=C1OC2(c3ccc(O)cc3Oc3cc(O)ccc32)c2ccccc21 [Fluorescein] |  |
| 197 | 205.8 | 196.8 | 204.3 | CCCCc1nc2cccnc2n1Cc1ccc(-c2ccccc2-c2nnn[nH]2)cc1 |  |
|  |  |  | 125.1 | CC1=CC(=O)NS(=O)(=O)O1 [Acesulfame potassium] |  |
| 124.7 |  | 125.6 |  | OCCN1CCNCC1 [1-Piperazineethanol] |  |
|  |  |  | 145.8 | O=S(=O)(O)c1cc(O)c(O)c(S(=O)(=O)O)c1 [Tiron] |  |
|  | 161.2 |  |  | CCC(=O)OCC(COC(=O)CC)OC(=O)CC [Tripropionin] |  |
|  |  |  | 172.9 | CCCN(CCC)S(=O)(=O)c1ccc(C(=O)O)cc1 [Probenecid] |  |
|  |  |  | 193.4 | CC(C)(c1cc(Br)c(O)c(Br)c1)c1cc(Br)c(O)c(Br)c1 [3,3',5,5'-Tetrabromobisphenol A] |  |
|  | 197.2 | 182.5 |  | C=CCc1cc(S(=O)(=O)c2ccc(O)c(CC=C)c2)ccc1O [4,4'-Sulfonylbis[2-(prop-2-en-1-yl)phenol]] |  |
|  |  |  | 215.5 | CCCCC(=O)O[C@]1(C(=O)CO)[C@@H](C)C[C@H]2[C@@H]3CCC4=CC(=O)C=C[C@]4(C)[C@@]3(F)[C@@H](O)C[C@@]21C [Betamethasone valerate] |  |

| collision cross section in nitrogen [1] [Å²] | collision cross section in nitrogen [2] [Å²] | collision cross section in nitrogen [3] [Å²] | collision cross section in nitrogen [4] [Å²] | Structure (SMILES) | collision cross section in nitrogen [5] [Å²] |
| --- | --- | --- | --- | --- | --- |
|  |  | 135.5 |  | Nc1cc(Cl)c(N)c(Cl)c1 [2,6-Dichloro-1,4-benzenediamine] | 128.1 |
|  |  |  | 155 | CCCCCCCCCCOC(C)=O [Decyl acetate] |  |
|  |  |  | 133.5 | O=S(=O)(O)c1ccc(Cl)cc1 [4-Chlorobenzenesulphonic acid] |  |
|  |  |  | 116.9 | O=C(O)CC(O)C(=O)O (stereo not given) [Malic acid] |  |
|  |  |  | 141.5 | Oc1ccc2c(c1)Cc1ccccc1-2 [2-Hydroxyfluorene] |  |
| 222.8 | 228.3 | 224.1 | 233.6 | N=C(NCCCCCCNC(=N)NC(=N)Nc1ccc(Cl)cc1)NC(=N)Nc1ccc(Cl)cc1 [Chlorhexidine diacetate] |  |
|  |  |  | 175.5 | O=C(Nc1cccc(C(F)(F)F)c1)c1cc(Br)cc(Br)c1O [Fluorosalan] |  |
|  |  |  | 160.1 | O=S(=O)(O)c1ccc2cc(O)c(S(=O)(=O)O)cc2c1 [Disodium 3-hydroxynaphthalene-2,7-disulfonate] |  |
| 118.1 |  | 119.4 | 120.4 | Cc1ccc(O)cn1 [6-Methyl-3-hydroxypyridine] |  |
|  |  |  | 163 | N#Cc1ccc(CC(=O)c2cccc(C(F)(F)F)c2)cc1 [4-{2-Oxo-2-[3-(trifluoromethyl)phenyl]ethyl}benzonitrile] |  |
|  | 197.1 | 196.3 | 202.7 | C[C@@H](Oc1ccc(CNC(=O)c2cccnc2Oc2ccc3c(c2)OCO3)c(F)c1)C(=O)O |  |
|  |  |  | 159.9 | Cc1cn([C@H]2C[C@H](N=[N+]=[N-])[C@@H](CO)O2)c(=O)[nH]c1=O [3'-Azido-3'-deoxythymidine] |  |
| 190.8 | 186.3 | 190.6 |  | Cc1oc(-c2ccccc2)nc1CCOc1cccc2c1ccn2CCC(=O)O |  |
|  |  |  | 147.3 | Nc1cc(S(=O)(=O)O)ccc1S(=O)(=O)O [2-Aminobenzene-1,4-disulfonic acid] |  |
|  |  |  | 127.4 | O=c1ccc2ccc(O)cc2o1 [Umbelliferone] |  |
| 173.8 | 191.8 | 173.9 | 176.2 | O=C1OC(c2ccc(O)cc2)(c2ccc(O)cc2)c2ccccc21 [Phenolphthalein] |  |
|  |  |  | 182 | CC(C)c1cccc(C(C)C)c1N1C(=O)c2ccc(O)cc2C1=O [2-(2,6-Diisopropylphenyl)-5-hydroxy-1H-isoindole-1,3-dione] |  |
|  |  |  | 177.9 | CCCCCCCCCCCCCCCC(=O)OCC [Ethyl hexadecanoate] |  |
|  | 153.6 |  |  | CCOC(=O)[C@@H](O)[C@H](O)C(=O)OCC [(-)-Diethyl-D-tartrate] |  |
|  |  | 154 | 151.4 | NCC1(Cc2noc(=O)[nH]2)CCCCC1 |  |
|  | 219.6 |  |  | CC(CCOC(=O)c1ccccc1C(=O)OCC[C@@H](C)CC(C)(C)C)CC(C)(C)C (stereo not given in full) [Bis(3,5,5-trimethylhexyl) phthalate] |  |
|  |  |  | 124.5 | O=C(O)CC(C(=O)O)S(=O)(=O)O (stereo not given) [Sulfosuccinic acid] |  |

| Structure (SMILES) | collision cross section in nitrogen [1] [Å²] | collision cross section in nitrogen [2] [Å²] | collision cross section in nitrogen [3] [Å²] | collision cross section in nitrogen [4] [Å²] | collision cross section in nitrogen [5] [Å²] |
| --- | --- | --- | --- | --- | --- |
| CCCCC(CC)COC(=O)c1ccccc1C(=O)OCC(CC)CCCC (stereo not given) [Di(2-ethylhexyl) phthalate] |  | 215.9 |  |  |  |
| CSC(C)=NOC(=O)N(C)SN(C)C(=O)ON=C(C)SC [Thiodicarb] |  | 190.7 |  |  |  |
| CC(O)CN(CC(C)O)CC(C)O (stereo not given) [Triisopropanolamine] | 141.3 | 143.9 | 141.5 |  |  |
| CC1(C(=O)Nc2ccc(O)c(Cl)c2Cl)CCCCC1 [Fenhexamid] | 166.7 |  | 166.4 | 172.6 |  |
| CCCCOCCOCCOC(=O)CCCCC(=O)OCCOCCOCCCC [Bis[2-(2-butoxyethoxy)ethyl] adipate] | 203.8 | 198.8 | 205.4 |  |  |
| C#CCOS(=O)OC1CCCCC1Oc1ccc(C(C)(C)C)cc1 (stereo not given) [Propargite] |  | 186.9 |  |  |  |
| COc1ccc(N)cc1 [4-Methoxybenzenamine] | 120.3 |  | 133.2 |  |  |
| O=C(NCNC(=O)NC1C(=O)NC(=O)N1CO)NC1C(=O)NC(=O)N1CO (stereo not given) [Imidazolidinyl urea] |  | 183.4 |  |  |  |
| Nc1cccc2ccccc12 [1-Naphthylamine] |  |  | 127.6 |  | 125 |
| CC(C)C1(C)N=C(c2ncccc2C(=O)O)NC1=O (stereo not given) [Imazapyr] | 156.5 | 173.1 | 156.7 | 161.8 |  |
| O=c1ccc(=O)[nH][nH]1 [Maleic hydrazide] |  |  |  | 117.8 |  |
| COc1cccc(C(=O)NN(C(=O)c2cc(C)cc(C)c2)C(C)(C)C)c1C [Methoxyfenozide] |  | 201.9 |  | 194.2 |  |
| CCCCc1c(C)nc(NCC)nc1OS(=O)(=O)N(C)C [Bupirimate] | 175.8 | 181.8 | 175.8 | 175.9 |  |
| CN1[C@@H]2C[C@@H](OC(=O)[C@H](CO)c3ccccc3)C[C@H]1[C@@H]1O[C@@H]12 [Scopolamine hydrochloride] | 172.2 |  | 171.7 |  |  |
| CCCCC(C#N)(Cn1cncn1)c1ccc(Cl)cc1 (stereo not given) [Myclobutanil] |  |  | 174.7 |  |  |
| O=C(O)c1cc[c]([Hg][Cl])cc1 [4-Chloromercuribenzoic acid] |  |  |  | 143 |  |
| CNP(=O)(OC)Oc1ccc(C(C)(C)C)cc1Cl (stereo not given) [Crufomate] | 165.2 | 176.3 | 165 |  |  |
| NC(=O)CN1CCCC1=O [2-Oxo-1-Pyrrolidineacetamide] |  | 136.8 |  |  |  |
| CC(C)(c1ccccc1)c1ccc(O)c(C(C)(C)c2ccccc2)c1 [2,4-Bis(1-methyl-1-phenylethyl)phenol] |  |  | 171.9 | 187.8 |  |
